{
  "source": "ChEMBL document CHEMBL5518218",
  "about": "“Discovery of Novel PD-L1 Small-Molecular Inhibitors with Potent In Vivo Anti-tumor Immune Activity” (J Med Chem, 2024)",
  "key": {"[1]": {"test": "Prodrug conversion in C57BL/6 mouse assessed as half life of (2-(benzo[c][1,2,5]oxadiazol-5-ylmethoxy)-5-chloro-4-((2-fluoro-3'-(3-(4-hydroxypiperidin-1-yl)propoxy)-[1,1'-biphenyl]-3-yl)methoxy)benzyl)-D-serine at 2 mg/kg, iv measured upto 24 hrs by LC-MS/MS analysis", "assay_type": "ADME, organism-based", "conditions": "in vivo"}, "[2]": {"test": "Prodrug conversion in C57BL/6 mouse assessed as oral bioavailability of (2-(benzo[c][1,2,5]oxadiazol-5-ylmethoxy)-5-chloro-4-((2-fluoro-3'-(3-(4-hydroxypiperidin-1-yl)propoxy)-[1,1'-biphenyl]-3-yl)methoxy)benzyl)-D-serine at 10 mg/kg measured upto 24 hrs by LC-MS/MS analysis", "assay_type": "ADME, organism-based", "conditions": "in vivo"}, "[3]": {"test": "Prodrug conversion in Sprague-Dawley rat assessed as Cmax of (2-(benzo[c][1,2,5]oxadiazol-5-ylmethoxy)-5-chloro-4-((2-fluoro-3'-(3-(4-hydroxypiperidin-1-yl)propoxy)-[1,1'-biphenyl]-3-yl)methoxy)benzyl)-D-serine at 45 mg/kg, po measured upto 24 hrs by LC-MS/MS analysis", "assay_type": "ADME, organism-based", "conditions": "in vivo"}, "[4]": {"test": "Prodrug conversion in Sprague-Dawley rat assessed as half life of (2-(benzo[c][1,2,5]oxadiazol-5-ylmethoxy)-5-chloro-4-((2-fluoro-3'-(3-(4-hydroxypiperidin-1-yl)propoxy)-[1,1'-biphenyl]-3-yl)methoxy)benzyl)-D-serine at 9 mg/kg, iv measured upto 24 hrs by LC-MS/MS analysis", "assay_type": "ADME, organism-based", "conditions": "in vivo"}, "[5]": {"test": "Acute toxicity in mouse assessed as mortality at 1000 mg/kg, po administered as single dose for 14 days", "assay_type": "organism-based", "conditions": "in vivo, 336 h, time 14 day"}, "CT26 [6]": {"system": "CT26", "test": "Cytotoxicity against mouse CT26 cells assessed as effect on cell viability at 0.07 to 150 uM incubated for 48 hrs by CCK-8 assay", "assay_type": "functional, cell-based", "conditions": "dose 0.07-150 µM"}, "MC-38 [7]": {"system": "MC-38", "test": "Antitumor activity against mouse MC38 cells implanted in po dosed C57BL/6J mouse assessed as reduction in tumor growth", "assay_type": "functional, organism-based", "conditions": "dose 5-25 mg/kg"}, "MC-38 [8]": {"system": "MC-38", "test": "Antitumor activity against mouse MC38 cells implanted in C57BL/6J mouse assessed as tumor growth inhibition at 25 mg/kg, po measured for 20 days", "assay_type": "functional", "conditions": "MC-38, 480 h, time 20 day, read-out: TGI"}, "[9]": {"test": "Prodrug conversion in Sprague-Dawley rat assessed as Cmax of (2-(benzo[c][1,2,5]oxadiazol-5-ylmethoxy)-5-chloro-4-((2-fluoro-3'-(3-(4-hydroxypiperidin-1-yl)propoxy)-[1,1'-biphenyl]-3-yl)methoxy)benzyl)-D-serine at 9 mg/kg, iv measured upto 24 hrs by LC-MS/MS analysis", "assay_type": "ADME, organism-based", "conditions": "in vivo"}, "[10]": {"test": "Prodrug conversion in C57BL/6 mouse assessed as AUC (0 to t) of (2-(benzo[c][1,2,5]oxadiazol-5-ylmethoxy)-5-chloro-4-((2-fluoro-3'-(3-(4-hydroxypiperidin-1-yl)propoxy)-[1,1'-biphenyl]-3-yl)methoxy)benzyl)-D-serine at 2 mg/kg, iv measured upto 24 hrs by LC-MS/MS analysis", "assay_type": "ADME, organism-based", "conditions": "in vivo"}, "[11]": {"test": "Prodrug conversion in Sprague-Dawley rat assessed as clearance of (2-(benzo[c][1,2,5]oxadiazol-5-ylmethoxy)-5-chloro-4-((2-fluoro-3'-(3-(4-hydroxypiperidin-1-yl)propoxy)-[1,1'-biphenyl]-3-yl)methoxy)benzyl)-D-serine at 9 mg/kg, iv measured upto 24 hrs by LC-MS/MS analysis", "assay_type": "ADME, organism-based", "conditions": "in vivo"}, "[12]": {"test": "Prodrug conversion in Sprague-Dawley rat assessed as oral bioavailability of (2-(benzo[c][1,2,5]oxadiazol-5-ylmethoxy)-5-chloro-4-((2-fluoro-3'-(3-(4-hydroxypiperidin-1-yl)propoxy)-[1,1'-biphenyl]-3-yl)methoxy)benzyl)-D-serine at 45 mg/kg measured upto 24 hrs by LC-MS/MS analysis", "assay_type": "ADME, organism-based", "conditions": "in vivo"}, "[13]": {"test": "Prodrug conversion in Sprague-Dawley rat assessed as Tmax of (2-(benzo[c][1,2,5]oxadiazol-5-ylmethoxy)-5-chloro-4-((2-fluoro-3'-(3-(4-hydroxypiperidin-1-yl)propoxy)-[1,1'-biphenyl]-3-yl)methoxy)benzyl)-D-serine at 45 mg/kg, po measured upto 24 hrs by LC-MS/MS analysis", "assay_type": "ADME, organism-based", "conditions": "in vivo"}, "[14]": {"test": "Prodrug conversion in C57BL/6 mouse assessed as Tmax of (2-(benzo[c][1,2,5]oxadiazol-5-ylmethoxy)-5-chloro-4-((2-fluoro-3'-(3-(4-hydroxypiperidin-1-yl)propoxy)-[1,1'-biphenyl]-3-yl)methoxy)benzyl)-D-serine at 10 mg/kg, po measured upto 24 hrs by LC-MS/MS analysis", "assay_type": "ADME, organism-based", "conditions": "in vivo"}, "[15]": {"test": "Prodrug conversion in Sprague-Dawley rat assessed as half life of (2-(benzo[c][1,2,5]oxadiazol-5-ylmethoxy)-5-chloro-4-((2-fluoro-3'-(3-(4-hydroxypiperidin-1-yl)propoxy)-[1,1'-biphenyl]-3-yl)methoxy)benzyl)-D-serine at 45 mg/kg measured upto 24 hrs by LC-MS/MS analysis", "assay_type": "ADME, organism-based", "conditions": "in vivo, po"}, "[16]": {"test": "Prodrug conversion in C57BL/6 mouse assessed as clearance of (2-(benzo[c][1,2,5]oxadiazol-5-ylmethoxy)-5-chloro-4-((2-fluoro-3'-(3-(4-hydroxypiperidin-1-yl)propoxy)-[1,1'-biphenyl]-3-yl)methoxy)benzyl)-D-serine at 2 mg/kg, iv measured upto 24 hrs by LC-MS/MS analysis", "assay_type": "ADME, organism-based", "conditions": "in vivo"}, "[17]": {"test": "Prodrug conversion in Sprague-Dawley rat assessed as Tmax of (2-(benzo[c][1,2,5]oxadiazol-5-ylmethoxy)-5-chloro-4-((2-fluoro-3'-(3-(4-hydroxypiperidin-1-yl)propoxy)-[1,1'-biphenyl]-3-yl)methoxy)benzyl)-D-serine at 9 mg/kg, iv measured upto 24 hrs by LC-MS/MS analysis", "assay_type": "ADME, organism-based", "conditions": "in vivo"}, "[18]": {"test": "Water solubility of the compound", "assay_type": "physicochemical"}, "CT26 [19]": {"system": "CT26", "test": "Antitumor activity against mouse CT26 cells implanted in BALB/c mouse assessed as tumor growth inhibition at 25 mg/kg, ip measured for 18 days", "assay_type": "functional", "conditions": "CT26, 432 h, time 18 day, read-out: TGI"}, "[20]": {"test": "Prodrug conversion in C57BL/6 mouse assessed as Cmax of (2-(benzo[c][1,2,5]oxadiazol-5-ylmethoxy)-5-chloro-4-((2-fluoro-3'-(3-(4-hydroxypiperidin-1-yl)propoxy)-[1,1'-biphenyl]-3-yl)methoxy)benzyl)-D-serine at 10 mg/kg, po measured upto 24 hrs by LC-MS/MS analysis", "assay_type": "ADME, organism-based", "conditions": "in vivo"}, "[21]": {"molecular_target": "Programmed cell death protein 1/Programmed cell death 1 ligand 1 (Homo sapiens, UniProt Q9NZQ7)", "sequence (Q15116 whole entry)": "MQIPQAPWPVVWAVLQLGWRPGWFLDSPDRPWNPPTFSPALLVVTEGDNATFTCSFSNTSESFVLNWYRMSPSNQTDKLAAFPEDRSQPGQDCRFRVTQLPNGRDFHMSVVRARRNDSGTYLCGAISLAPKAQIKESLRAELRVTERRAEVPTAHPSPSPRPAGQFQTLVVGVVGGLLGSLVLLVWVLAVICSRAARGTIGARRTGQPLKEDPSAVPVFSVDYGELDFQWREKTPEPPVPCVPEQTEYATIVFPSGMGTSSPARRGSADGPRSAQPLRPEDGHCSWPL", "sequence (Q9NZQ7 whole entry)": "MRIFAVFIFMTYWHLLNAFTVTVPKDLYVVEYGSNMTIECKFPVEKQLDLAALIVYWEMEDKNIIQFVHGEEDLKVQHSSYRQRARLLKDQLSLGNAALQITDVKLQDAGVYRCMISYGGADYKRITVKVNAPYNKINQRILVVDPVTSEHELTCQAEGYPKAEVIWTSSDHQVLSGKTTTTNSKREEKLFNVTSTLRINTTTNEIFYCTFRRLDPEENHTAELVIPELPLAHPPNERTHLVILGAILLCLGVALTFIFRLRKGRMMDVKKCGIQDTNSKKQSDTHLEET", "test": "Inhibition of PD-1/PD-L1 interaction (unknown origin) incubated for 15 min by HTRF assay", "assay_type": "protein-complex assay"}, "[22]": {"test": "Prodrug conversion in C57BL/6 mouse assessed as half life of (2-(benzo[c][1,2,5]oxadiazol-5-ylmethoxy)-5-chloro-4-((2-fluoro-3'-(3-(4-hydroxypiperidin-1-yl)propoxy)-[1,1'-biphenyl]-3-yl)methoxy)benzyl)-D-serine at 10 mg/kg, po measured upto 24 hrs by LC-MS/MS analysis", "assay_type": "ADME, organism-based", "conditions": "in vivo"}, "CT26 [23]": {"system": "CT26", "test": "Antitumor activity against mouse CT26 cells implanted in BALB/c mouse assessed as reduction in Treg lymphocyte at 25 mg/kg, ip measured for 20 days", "assay_type": "functional, organism-based", "conditions": "time 20.0 day"}, "[24]": {"test": "Prodrug conversion in C57BL/6 mouse assessed as Cmax of (2-(benzo[c][1,2,5]oxadiazol-5-ylmethoxy)-5-chloro-4-((2-fluoro-3'-(3-(4-hydroxypiperidin-1-yl)propoxy)-[1,1'-biphenyl]-3-yl)methoxy)benzyl)-D-serine at 2 mg/kg, iv measured upto 24 hrs by LC-MS/MS analysis", "assay_type": "ADME, organism-based", "conditions": "in vivo"}},
  "note": "Calls of active or inactive are those of the source. No cut-off for these calls is given here.",
  "data": [
    {"smiles": "CCOC(=O)[C@@H](CO)NCc1cc(Cl)c(OCc2cccc(-c3cccc(OCCCN4CCC(O)CC4)c3)c2F)cc1OCc1ccc2nonc2c1.Cl.Cl", "values": [
      {"measurement": "t1/2", "setting": "[1]", "result": 1.7, "unit": "h"},
      {"measurement": "F", "setting": "[2]", "result": 11.5, "unit": "%"},
      {"measurement": "Cmax", "setting": "[3]", "result": 0.0498, "unit": "µg/mL"},
      {"measurement": "t1/2", "setting": "[4]", "result": 7.9, "unit": "h"},
      {"measurement": "Activity", "setting": "[5]", "result": "Non-Toxic"},
      {"measurement": "Activity", "setting": "CT26 [6]", "result": "inactive"},
      {"measurement": "Activity", "setting": "MC-38 [7]", "result": "Dose-Dependent Effect"},
      {"measurement": "inhibition in vivo at 25 mg/kg", "setting": "MC-38 [8]", "result": 73.6, "unit": "%"},
      {"measurement": "Cmax", "setting": "[9]", "result": 3.7607, "unit": "µg/mL"},
      {"measurement": "AUCt", "setting": "[10]", "result": 0.5316, "unit": "µg·h/mL"},
      {"measurement": "CL", "setting": "[11]", "result": 1.426, "unit": "L/h/kg"},
      {"measurement": "F", "setting": "[12]", "result": 3.4, "unit": "%"},
      {"measurement": "Tmax", "setting": "[13]", "result": 4, "unit": "h"},
      {"measurement": "Tmax", "setting": "[14]", "result": 0.7, "unit": "h"},
      {"measurement": "t1/2", "setting": "[15]", "result": 4.3, "unit": "h"},
      {"measurement": "CL", "setting": "[16]", "result": 3.7107, "unit": "L/h/kg"},
      {"measurement": "Tmax", "setting": "[17]", "result": 4.8, "unit": "min"},
      {"measurement": "solubility", "setting": "[18]", "result": 9.52, "unit": "µM"},
      {"measurement": "inhibition in vivo at 25 mg/kg", "setting": "CT26 [19]", "result": 54.8, "unit": "%"},
      {"measurement": "Cmax", "setting": "[20]", "result": 0.2557, "unit": "µg/mL"},
      {"measurement": "IC50", "setting": "[21]", "result": 0.786, "unit": "µM"},
      {"measurement": "t1/2", "setting": "[22]", "result": 1.6, "unit": "h"},
      {"measurement": "Activity", "setting": "CT26 [23]", "result": "Active"},
      {"measurement": "Cmax", "setting": "[24]", "result": 0.8723, "unit": "µg/mL"}
    ]}
  ]
}
